Source: the NIST ThermoML archive (doi:10.1016/j.fluid.2018.04.024)
Numbers after ± are expanded uncertainties.

Conditions: 333.15 K; 100 kPa; Liquid; Vibrating tube method

mass density [kg/m3]	SMILES
853.11 ± 0.88	CCCC(=O)OC [methyl butanoate]
843.03 ± 0.87	CCCCCCC(=O)OC [methyl heptanoate]
845.43 ± 0.87	CCCCCC(=O)OC [methyl hexanoate]
839.92 ± 0.87	CCCCCCCCC(=O)OC [methyl nonanoate]

Same assay, conditions: 333.15 K; 1000 kPa; Liquid; Vibrating tube method

mass density [kg/m3]	SMILES
854.08 ± 0.88	CCCC(=O)OC [methyl butanoate]
843.81 ± 0.87	CCCCCCC(=O)OC [methyl heptanoate]
846.26 ± 0.88	CCCCCC(=O)OC [methyl hexanoate]
840.72 ± 0.87	CCCCCCCCC(=O)OC [methyl nonanoate]

Same assay, conditions: 333.15 K; 3000 kPa; Liquid; Vibrating tube method

mass density [kg/m3]	SMILES
856.55 ± 0.89	CCCC(=O)OC [methyl butanoate]
845.84 ± 0.88	CCCCCCC(=O)OC [methyl heptanoate]
848.43 ± 0.88	CCCCCC(=O)OC [methyl hexanoate]
842.6 ± 0.87	CCCCCCCCC(=O)OC [methyl nonanoate]

Same assay, conditions: 333.15 K; 5000 kPa; Liquid; Vibrating tube method

mass density [kg/m3]	SMILES
858.82 ± 0.89	CCCC(=O)OC [methyl butanoate]
847.68 ± 0.88	CCCCCCC(=O)OC [methyl heptanoate]
850.38 ± 0.88	CCCCCC(=O)OC [methyl hexanoate]
844.26 ± 0.88	CCCCCCCCC(=O)OC [methyl nonanoate]

Same assay, conditions: 333.15 K; 10000 kPa; Liquid; Vibrating tube method

mass density [kg/m3]	SMILES
864.28 ± 0.9	CCCC(=O)OC [methyl butanoate]
852.16 ± 0.89	CCCCCCC(=O)OC [methyl heptanoate]
855.15 ± 0.9	CCCCCC(=O)OC [methyl hexanoate]
848.44 ± 0.89	CCCCCCCCC(=O)OC [methyl nonanoate]

Same assay, conditions: 333.15 K; 15000 kPa; Liquid; Vibrating tube method

mass density [kg/m3]	SMILES
869.44 ± 0.91	CCCC(=O)OC [methyl butanoate]
856.43 ± 0.9	CCCCCCC(=O)OC [methyl heptanoate]
859.63 ± 0.91	CCCCCC(=O)OC [methyl hexanoate]
852.27 ± 0.9	CCCCCCCCC(=O)OC [methyl nonanoate]

Same assay, conditions: 333.15 K; 20000 kPa; Liquid; Vibrating tube method

mass density [kg/m3]	SMILES
874.46 ± 0.93	CCCC(=O)OC [methyl butanoate]
860.63 ± 0.92	CCCCCCC(=O)OC [methyl heptanoate]
864 ± 0.92	CCCCCC(=O)OC [methyl hexanoate]
856.18 ± 0.91	CCCCCCCCC(=O)OC [methyl nonanoate]

Same assay, conditions: 333.15 K; 25000 kPa; Liquid; Vibrating tube method

mass density [kg/m3]	SMILES
879.2 ± 0.9	CCCC(=O)OC [methyl butanoate]
864.64 ± 0.93	CCCCCCC(=O)OC [methyl heptanoate]
868.18 ± 0.93	CCCCCC(=O)OC [methyl hexanoate]
859.9 ± 0.92	CCCCCCCCC(=O)OC [methyl nonanoate]

Same assay, conditions: 333.15 K; 30000 kPa; Liquid; Vibrating tube method

mass density [kg/m3]	SMILES
883.56 ± 0.95	CCCC(=O)OC [methyl butanoate]
868.31 ± 0.94	CCCCCCC(=O)OC [methyl heptanoate]
871.99 ± 0.94	CCCCCC(=O)OC [methyl hexanoate]
863.32 ± 0.93	CCCCCCCCC(=O)OC [methyl nonanoate]

Same assay, conditions: 333.15 K; 35000 kPa; Liquid; Vibrating tube method

mass density [kg/m3]	SMILES
887.79 ± 0.95	CCCC(=O)OC [methyl butanoate]
871.91 ± 0.95	CCCCCCC(=O)OC [methyl heptanoate]
875.8 ± 0.95	CCCCCC(=O)OC [methyl hexanoate]
866.68 ± 0.95	CCCCCCCCC(=O)OC [methyl nonanoate]

Same assay, conditions: 333.15 K; 40000 kPa; Liquid; Vibrating tube method

mass density [kg/m3]	SMILES
892.1 ± 0.96	CCCC(=O)OC [methyl butanoate]
875.61 ± 0.96	CCCCCCC(=O)OC [methyl heptanoate]
879.63 ± 0.96	CCCCCC(=O)OC [methyl hexanoate]
870.12 ± 0.96	CCCCCCCCC(=O)OC [methyl nonanoate]

Same assay, conditions: 333.15 K; 50000 kPa; Liquid; Vibrating tube method

mass density [kg/m3]	SMILES
899.8 ± 0.98	CCCC(=O)OC [methyl butanoate]
882.2 ± 0.98	CCCCCCC(=O)OC [methyl heptanoate]
886.48 ± 0.98	CCCCCC(=O)OC [methyl hexanoate]
876.13 ± 0.98	CCCCCCCCC(=O)OC [methyl nonanoate]

Same assay, conditions: 333.15 K; 60000 kPa; Liquid; Vibrating tube method

mass density [kg/m3]	SMILES
906.96 ± 0.99	CCCC(=O)OC [methyl butanoate]
888.39 ± 1	CCCCCCC(=O)OC [methyl heptanoate]
892.97 ± 0.99	CCCCCC(=O)OC [methyl hexanoate]
881.95 ± 1	CCCCCCCCC(=O)OC [methyl nonanoate]

Same assay, conditions: 343.15 K; 100 kPa; Liquid; Vibrating tube method

mass density [kg/m3]	SMILES
841.05 ± 0.87	CCCC(=O)OC [methyl butanoate]
833.48 ± 0.86	CCCCCCC(=O)OC [methyl heptanoate]
835.2 ± 0.86	CCCCCC(=O)OC [methyl hexanoate]
831.17 ± 0.86	CCCCCCCCC(=O)OC [methyl nonanoate]

Same assay, conditions: 343.15 K; 1000 kPa; Liquid; Vibrating tube method

mass density [kg/m3]	SMILES
842.4 ± 0.9	CCCC(=O)OC [methyl butanoate]
834.64 ± 0.86	CCCCCCC(=O)OC [methyl heptanoate]
836.39 ± 0.87	CCCCCC(=O)OC [methyl hexanoate]
832.28 ± 0.86	CCCCCCCCC(=O)OC [methyl nonanoate]

Same assay, conditions: 343.15 K; 3000 kPa; Liquid; Vibrating tube method

mass density [kg/m3]	SMILES
844.95 ± 0.88	CCCC(=O)OC [methyl butanoate]
836.7 ± 0.87	CCCCCCC(=O)OC [methyl heptanoate]
838.54 ± 0.87	CCCCCC(=O)OC [methyl hexanoate]
834.1 ± 0.87	CCCCCCCCC(=O)OC [methyl nonanoate]

Same assay, conditions: 343.15 K; 5000 kPa; Liquid; Vibrating tube method

mass density [kg/m3]	SMILES
847.57 ± 0.88	CCCC(=O)OC [methyl butanoate]
838.79 ± 0.87	CCCCCCC(=O)OC [methyl heptanoate]
840.78 ± 0.88	CCCCCC(=O)OC [methyl hexanoate]
835.98 ± 0.87	CCCCCCCCC(=O)OC [methyl nonanoate]

Same assay, conditions: 343.15 K; 10000 kPa; Liquid; Vibrating tube method

mass density [kg/m3]	SMILES
853.35 ± 0.89	CCCC(=O)OC [methyl butanoate]
843.47 ± 0.89	CCCCCCC(=O)OC [methyl heptanoate]
845.7 ± 0.89	CCCCCC(=O)OC [methyl hexanoate]
840.27 ± 0.88	CCCCCCCCC(=O)OC [methyl nonanoate]

Same assay, conditions: 343.15 K; 15000 kPa; Liquid; Vibrating tube method

mass density [kg/m3]	SMILES
858.9 ± 0.9	CCCC(=O)OC [methyl butanoate]
848.02 ± 0.9	CCCCCCC(=O)OC [methyl heptanoate]
850.49 ± 0.9	CCCCCC(=O)OC [methyl hexanoate]
844.44 ± 0.9	CCCCCCCCC(=O)OC [methyl nonanoate]

Same assay, conditions: 343.15 K; 20000 kPa; Liquid; Vibrating tube method

mass density [kg/m3]	SMILES
864.31 ± 0.92	CCCC(=O)OC [methyl butanoate]
852.59 ± 0.91	CCCCCCC(=O)OC [methyl heptanoate]
855.28 ± 0.91	CCCCCC(=O)OC [methyl hexanoate]
848.65 ± 0.91	CCCCCCCCC(=O)OC [methyl nonanoate]

Same assay, conditions: 343.15 K; 25000 kPa; Liquid; Vibrating tube method

mass density [kg/m3]	SMILES
869.1 ± 0.9	CCCC(=O)OC [methyl butanoate]
856.55 ± 0.92	CCCCCCC(=O)OC [methyl heptanoate]
859.46 ± 0.92	CCCCCC(=O)OC [methyl hexanoate]
852.29 ± 0.92	CCCCCCCCC(=O)OC [methyl nonanoate]

Same assay, conditions: 343.15 K; 30000 kPa; Liquid; Vibrating tube method

mass density [kg/m3]	SMILES
873.89 ± 0.94	CCCC(=O)OC [methyl butanoate]
860.57 ± 0.93	CCCCCCC(=O)OC [methyl heptanoate]
863.7 ± 0.93	CCCCCC(=O)OC [methyl hexanoate]
856.04 ± 0.93	CCCCCCCCC(=O)OC [methyl nonanoate]

Same assay, conditions: 343.15 K; 35000 kPa; Liquid; Vibrating tube method

mass density [kg/m3]	SMILES
878.44 ± 0.95	CCCC(=O)OC [methyl butanoate]
864.43 ± 0.94	CCCCCCC(=O)OC [methyl heptanoate]
867.75 ± 0.95	CCCCCC(=O)OC [methyl hexanoate]
859.58 ± 0.94	CCCCCCCCC(=O)OC [methyl nonanoate]

Same assay, conditions: 343.15 K; 40000 kPa; Liquid; Vibrating tube method

mass density [kg/m3]	SMILES
882.65 ± 0.96	CCCC(=O)OC [methyl butanoate]
867.96 ± 0.96	CCCCCCC(=O)OC [methyl heptanoate]
871.46 ± 0.96	CCCCCC(=O)OC [methyl hexanoate]
862.91 ± 0.95	CCCCCCCCC(=O)OC [methyl nonanoate]

Same assay, conditions: 343.15 K; 50000 kPa; Liquid; Vibrating tube method

mass density [kg/m3]	SMILES
890.89 ± 0.98	CCCC(=O)OC [methyl butanoate]
875 ± 0.98	CCCCCCC(=O)OC [methyl heptanoate]
878.77 ± 0.98	CCCCCC(=O)OC [methyl hexanoate]
869.47 ± 0.98	CCCCCCCCC(=O)OC [methyl nonanoate]

Same assay, conditions: 343.15 K; 60000 kPa; Liquid; Vibrating tube method

mass density [kg/m3]	SMILES
898.16 ± 0.99	CCCC(=O)OC [methyl butanoate]
881.19 ± 1	CCCCCCC(=O)OC [methyl heptanoate]
885.3 ± 1	CCCCCC(=O)OC [methyl hexanoate]
875.25 ± 1	CCCCCCCCC(=O)OC [methyl nonanoate]
